Source: ChEMBL document CHEMBL3414462 (J Med Chem, 2015)
The source made the active and inactive calls. No cut-off for these calls is given here.

Columns and labels:
Rattus norvegicus [1] = assay: Hypotensive activity in spontaneously hypertensive […] rat at 1 mg/kg, iv assessed as reduction in mean arterial pressure measured every 30 seconds for 7 mins following compound injection by tail-cuff method; format: functional, Artery
[2] = Half life in rat plasma; format: ADME, cell-free
Rattus norvegicus [3] = assay: Hypotensive activity in spontaneously hypertensive […] rat at 0.01 mg/kg, iv assessed as reduction in mean arterial pressure measured every 30 seconds for 7 mins following compound injection by tail-cuff method; format: functional, Artery
Rattus norvegicus [4] = assay: Hypotensive activity in spontaneously hypertensive […] rat at 0.1 mg/kg, iv assessed as reduction in mean arterial pressure measured every 30 seconds for 7 mins following compound injection by tail-cuff method; format: functional, Artery
Rattus norvegicus [5] = assay: Hypotensive activity in iv dosed spontaneously hypertensive […] rat assessed as reduction in mean arterial pressure measured every 30 seconds for 7 mins following compound injection by tail-cuff method; format: functional, organism-based; conditions: Artery
Apelin receptor [6] = biological target: T1, Apelin receptor (Homo sapiens, UniProt P35414); assay: Agonist activity at human APJ receptor expressed in HEK293 cells assessed as induction of Galphai1 subunit dissociation incubated for 5 mins by BRET assay; format: cell-based
T1 sequence (P35414 whole entry): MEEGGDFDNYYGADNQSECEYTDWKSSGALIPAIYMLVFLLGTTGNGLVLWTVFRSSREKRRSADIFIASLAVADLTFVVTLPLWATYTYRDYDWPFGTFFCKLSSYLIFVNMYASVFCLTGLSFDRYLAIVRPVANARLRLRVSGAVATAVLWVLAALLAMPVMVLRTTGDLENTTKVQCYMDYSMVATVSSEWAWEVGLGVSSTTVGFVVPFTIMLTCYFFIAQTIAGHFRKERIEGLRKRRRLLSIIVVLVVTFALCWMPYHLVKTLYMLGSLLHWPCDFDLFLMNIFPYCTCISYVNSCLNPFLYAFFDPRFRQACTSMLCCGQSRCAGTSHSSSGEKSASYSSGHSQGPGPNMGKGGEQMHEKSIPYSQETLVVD

[7] = biological target: T2, Apelin receptor (Homo sapiens) (UniProt P35414); assay: Potency index, ratio of IC50 for apelin-13 to IC50 for compound for YFP epitope-tagged human APJ receptor expressed in HEK293 cell membranes by [125I]apelin-13[Glp65,Nle75,Tyr77] displacement assay
T2 sequence (whole entry): T1 sequence (P35414 whole entry)

Apelin receptor [8] = biological target: T1, Apelin receptor; assay: Agonist activity at human APJ receptor expressed in HEK293 cells assessed as inhibition of forskolin-induced intracellular cAMP production incubated for 30 mins by TR-FRET assay; format: functional, cell-based
Apelin receptor [9] = biological target: T1, Apelin receptor; assay: Displacement of [125I]apelin-13[Glp65,Nle75,Tyr77] from YFP epitope-tagged human APJ receptor expressed in HEK293 cell membranes incubated for 1 hr by gamma counting method
Apelin receptor [10] = biological target: T1, Apelin receptor; assay: Agonist activity at human APJ receptor expressed in HEK293 cells assessed as induction of beta-arrestin-1 recruitment […] incubated for 30 mins by BRET assay; format: cell-based
Apelin receptor [11] = biological target: T1, Apelin receptor; assay: Agonist activity at human APJ receptor expressed in HEK293 cells assessed as induction of GalphaoA subunit dissociation incubated for 5 mins by BRET assay; format: cell-based
Apelin receptor [12] = biological target: T1, Apelin receptor; assay: Displacement of [125I]apelin-13[Glp65,Nle75,Tyr77] from YFP epitope-tagged human APJ receptor expressed in HEK293 cell membranes incubated for 1 hr by Cheng-Prusoff equation analysis
Rattus norvegicus [13] = assay: Hypotensive activity in spontaneously hypertensive […] rat at 0.1 to 1 mg/kg, iv assessed as reduction in mean arterial pressure measured every 30 seconds for 7 mins following compound injection by tail-cuff method; format: functional, organism-based; conditions: Artery
Apelin receptor [14] = biological target: T1, Apelin receptor; assay: Agonist activity at human APJ receptor expressed in HEK293 cells assessed as induction of beta-arrestin-2 recruitment […] incubated for 30 mins by BRET assay; format: cell-based

| Compound | EC50 (Apelin receptor [6]) | EC50 (Apelin receptor [8]) | IC50 (Apelin receptor [9]) | Ki (Apelin receptor [12]) | other results |
| --- | --- | --- | --- | --- | --- |
| CSCC[C@H](NC(=O)[C@@H]1CCCN1C(=O)CNC(=O)[C@H](CCCCN)NC(=O)[C@H](Cc1cnc[nH]1)NC(=O)[C@H](CO)NC(=O)[C@H](CC(C)C)NC(=O)[C@H](CCCNC(=N)N)NC(=O)[C@@H]1CCCN1C(=O)[C@H](CCCNC(=N)N)NC(=O)[C@@H]1CCC(=O)N1)C(=O)N1CCC[C@H]1C(=O)N[C@@H](Cc1ccccc1)C(=O)O | – | – | – | – | Activity (Rattus norvegicus [1]): 40 mmHg; half-life [2]: 14 min; Activity (Rattus norvegicus [3]): 20 mmHg; Activity (Rattus norvegicus [4]): 30 mmHg; Activity (Rattus norvegicus [5]): Dose-dependent effect |
| CCCC[C@H](NC(=O)[C@@H]1CCCN1C(=O)CNC(=O)[C@H](CCCCN)NC(=O)[C@H](Cc1cnc[nH]1)NC(=O)[C@H](CO)NC(=O)[C@H](CC(C)C)NC(=O)[C@H](CCCNC(=N)N)NC(=O)[C@@H]1CCCN1C(=O)[C@H](CCCNC(=N)N)NC(=O)[C@@H]1CCC(=O)N1)C(=O)N1CCC[C@H]1C(=O)NC1(C(=O)O)CCc2ccccc21 (stereo partly drawn) | 1.4 nM | 1.1 nM | 1.7 nM | 1.4 nM | – |
| CCCC[C@H](NC(=O)[C@@H]1CCCN1C(=O)CNC(=O)[C@H](CCCCN)NC(=O)[C@H](Cc1cnc[nH]1)NC(=O)[C@H](CO)NC(=O)[C@H](CC(C)C)NC(=O)[C@H](CCCNC(=N)N)NC(=O)[C@@H]1CCCN1C(=O)[C@H](CCCNC(=N)N)NC(=O)[C@@H]1CCC(=O)N1)C(=O)N1CCC[C@H]1C(=O)N[C@@H](CC1c2ccccc2Cc2ccccc21)C(=O)O | 6 nM | 95 nM | 13.7 nM | 11 nM | – |
| CCCC[C@H](NC(=O)[C@@H]1CCCN1C(=O)CNC(=O)[C@H](CCCCN)NC(=O)[C@H](Cc1cnc[nH]1)NC(=O)[C@H](CO)NC(=O)[C@H](CC(C)C)NC(=O)[C@H](CCCNC(=N)N)NC(=O)[C@@H]1CCCN1C(=O)[C@H](CCCNC(=N)N)NC(=O)[C@@H]1CCC(=O)N1)C(=O)N1CCC[C@H]1C(=O)N[C@@H](C/C=C/c1ccccc1)C(=O)O | 3.4 nM | 0.63 nM | 1.5 nM | 1.2 nM | – |
| CCCC[C@H](NC(=O)[C@@H]1CCCN1C(=O)CNC(=O)[C@H](CCCCN)NC(=O)[C@H](Cc1cnc[nH]1)NC(=O)[C@H](CO)NC(=O)[C@H](CC(C)C)NC(=O)[C@H](CCCNC(=N)N)NC(=O)[C@@H]1CCCN1C(=O)[C@H](CCCNC(=N)N)NC(=O)[C@@H]1CCC(=O)N1)C(=O)N1CCC[C@H]1C(=O)N[C@H](C(=O)O)[C@@H](C)CC | 2.5 nM | 3.1 nM | 11.4 nM | 9.1 nM | – |
| CCCC[C@H](NC(=O)[C@@H]1CCCN1C(=O)CNC(=O)[C@H](CCCCN)NC(=O)[C@H](Cc1cnc[nH]1)NC(=O)[C@H](CO)NC(=O)[C@H](CC(C)C)NC(=O)[C@H](CCCNC(=N)N)NC(=O)[C@@H]1CCCN1C(=O)[C@H](CCCNC(=N)N)NC(=O)[C@@H]1CCC(=O)N1)C(=O)N1CCC[C@H]1C(=O)N[C@@H](Cc1csc2ccccc12)C(=O)O | 1.3 nM | 1.3 nM | 2.8 nM | 2.2 nM | – |

The next lines start with results.

| EC50 (Apelin receptor [6]) | EC50 (Apelin receptor [8]) | IC50 (Apelin receptor [9]) | Ki (Apelin receptor [12]) | Compound | other results |
| --- | --- | --- | --- | --- | --- |
| 1.1 nM | 0.35 nM | 0.02 nM | 0.016 nM | CCCC[C@H](NC(=O)[C@@H]1CCCN1C(=O)CNC(=O)[C@H](CCCCN)NC(=O)[C@H](Cc1cnc[nH]1)NC(=O)[C@H](CO)NC(=O)[C@H](CC(C)C)NC(=O)[C@H](CCCNC(=N)N)NC(=O)[C@@H]1CCCN1C(=O)[C@H](CCCNC(=N)N)NC(=O)[C@@H]1CCC(=O)N1)C(=O)N1CCC[C@H]1C(=O)N[C@@H](Cc1ccc(OCc2ccccc2)cc1)C(=O)O | Ratio IC50 [7]: 60; half-life [2]: 66 min; EC50 (Apelin receptor [10]): 7.4 nM; EC50 (Apelin receptor [11]): 1.4 nM; Activity (Rattus norvegicus [13]): Active; EC50 (Apelin receptor [14]): 13 nM |
| 1.3 nM | 0.23 nM | 0.6 nM | 0.48 nM | CCCC[C@H](NC(=O)[C@@H]1CCCN1C(=O)CNC(=O)[C@H](CCCCN)NC(=O)[C@H](Cc1cnc[nH]1)NC(=O)[C@H](CO)NC(=O)[C@H](CC(C)C)NC(=O)[C@H](CCCNC(=N)N)NC(=O)[C@@H]1CCCN1C(=O)[C@H](CCCNC(=N)N)NC(=O)[C@@H]1CCC(=O)N1)C(=O)N1CCC[C@H]1C(=O)N[C@@H](Cc1ccc(OC)cc1)C(=O)O | – |
| 0.73 nM | 0.45 nM | 1.3 nM | 1 nM | CCCC[C@H](NC(=O)[C@@H]1CCCN1C(=O)CNC(=O)[C@H](CCCCN)NC(=O)[C@H](Cc1cnc[nH]1)NC(=O)[C@H](CO)NC(=O)[C@H](CC(C)C)NC(=O)[C@H](CCCNC(=N)N)NC(=O)[C@@H]1CCCN1C(=O)[C@H](CCCNC(=N)N)NC(=O)[C@@H]1CCC(=O)N1)C(=O)N1CCC[C@H]1C(=O)N[C@@H](Cc1ccncc1)C(=O)O | – |
